The source of these data is patent US8722714B2, “Oxazolidine derivatives as NMDA antagonists” (The Honk Kong University of Science and Technology, priority 2008, dated 2014).

One test has as its target T1, Opioid (mu) (Homo sapiens, UniProt P35372).
T1 construct: CEREP, France (contract assay, High-throughput Profile)
Kind of test: Ligand binding assay (High-throughput Profile, CEREP). The protocol:
(§1) To determine the pharmacological profile and potential targets of LC-02, 80 binding assays were performed (High-throughput Profile, CEREP, France). LC-02 was evaluated at a single concentration in these specific binding assays. […] A cutoff of 25% is considered as a moderate effect.
(§2) Compound LC-02 (10 μM) was subjected to ligand binding assays with human A3 and rat kappa receptor overexpressing cells. Results are expressed as a percent of control specific agonist response [100-(measured specific response/control specific agonist response)×100] obtained in the presence of LC-02.

The target of a further test is T2, Adenosine A2A (Homo sapiens, UniProt P29274).
T2 construct: CEREP, France (contract assay, High-throughput Profile)
The test is described as above. The procedure: as §1, §2

For the next test, the target named is T3, Opioid (delta) (Homo sapiens, UniProt P41143).
T3 construct: CEREP, France (contract assay, High-throughput Profile)
The description is as above. The protocol: as §1, §2

The target in another test is T4, adenosine A3 receptor (Homo sapiens, UniProt P0DMS8).
T4 sequence (P0DMS8 1-318): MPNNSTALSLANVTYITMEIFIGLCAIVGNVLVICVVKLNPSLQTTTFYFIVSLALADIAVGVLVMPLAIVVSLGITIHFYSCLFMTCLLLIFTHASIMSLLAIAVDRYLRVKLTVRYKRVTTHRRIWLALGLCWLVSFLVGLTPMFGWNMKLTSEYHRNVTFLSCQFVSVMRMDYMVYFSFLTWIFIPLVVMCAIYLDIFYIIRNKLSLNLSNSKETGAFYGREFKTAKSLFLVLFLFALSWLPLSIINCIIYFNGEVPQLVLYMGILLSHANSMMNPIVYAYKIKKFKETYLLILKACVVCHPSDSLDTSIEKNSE
The test is described as above. Conditions: [125I]AB-MECA, human A3 overexpressing cells. The protocol:
as §1, §2

Another test has as its target T5, Adenosine A1 (Homo sapiens, UniProt P30542).
T5 construct: CEREP, France (contract assay, High-throughput Profile)
T5 sequence (P30542 1-326): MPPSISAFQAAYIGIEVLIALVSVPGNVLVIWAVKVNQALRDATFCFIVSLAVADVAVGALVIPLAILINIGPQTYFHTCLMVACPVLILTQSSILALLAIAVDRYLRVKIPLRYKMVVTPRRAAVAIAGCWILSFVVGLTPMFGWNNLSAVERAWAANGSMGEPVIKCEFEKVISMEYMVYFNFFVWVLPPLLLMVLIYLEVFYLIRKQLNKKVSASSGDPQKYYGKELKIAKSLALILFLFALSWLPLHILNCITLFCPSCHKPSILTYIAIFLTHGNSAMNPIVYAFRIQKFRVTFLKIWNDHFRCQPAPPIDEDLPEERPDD
The description is as above. The procedure:
as §1, §2

Another test addresses opioid kappa receptor (Rattus norvegicus, UniProt P34975). Described as above. The protocol:
as §1, §2

For test [1], the system named is rat primary cortical neurons. Kind of test: Immunocytochemical analysis of neurons after NMDA insult. Conditions: compound 10 μg/ml; beta-tubulin type III and DAPI stain. In kind it is cell-based. The procedure: Primary cortical and hippocampal neurons were prepared from embryonic day 18 (E18) Sprague-Dawley rats. Neurons were plated on 35-mm dishes (NUNC) at a density of 1×10^6 cells per plate using Neurobasal medium (Invitrogen) supplemented with 2% B27 (Invitrogen). Neurons at 11-12 days in vitro (DIV) were subjected to treatment with the test compounds. Neurons were pretreated with the test compound for 2 hours prior to NMDA treatment. 0.1 μM (+)-MK-801 Hydrogen Maleate (Sigma) was added as a positive control. Briefly, the neurons were rinsed with Locke's solution (5 mM potassium chloride, 128 mM sodium chloride, 2.7 mM calcium chloride, 1 mM di-sodium hydrogen orthophosphate, 5 mM HEPES and 10 mM glucose in Milli-Q water) without Mg^2+, and incubated with addition of glycine (10 μM) for 15 minutes. After the incubation, the neurons were co-treated with the test compound (dissolved in Locke's plus glycine solution) and NMDA (20 μM; Sigma) for 20 minutes. Neurons were rinsed with Locke's plus Mg^2+ and replaced with fresh growth medium. […] Neurons were then analyzed by a fluorescence microscope using a 40× objective (DMRA; Leica). […]
LC-02 (10 μg/mL) protects embryonic rat primary cortical neurons against NMDA excitotoxicity. Neurites were immunostained with beta-tubulin type III antibody and detected with FITC-conjugated antibody. […]

The next test concerns AKT. Kind of test: Western blot detection of AKT phosphorylation in rat cortical neurons. In kind it is cell-based. Particulars: 500 μM; rat cortical neurons 11 DIV. The procedure: Embryonic day 18 Sprague Dawley rat pups were decapitated, their brains removed, and the cortices were isolated. Tissues were triturated and isolated neurons were plated onto 60 mm plate and cultured with Neurobasal medium supplemented with 2% B27 (Invitrogen). Experiments were performed after 10-12 days in vitro (DIV). Cultured cells were stimulated with a test compound or vehicle control (DMSO) for different time intervals and then lysed with RIPA buffer including protease inhibitors. Cell lysates were stored at −80° C. before use. Before being loaded, the lysates were heated to 95° C. for 10 min, vortexed and centrifuged for 7 min at 15,000×g. Supernatants were electrophoresed on 10% SDS-polyacrylamide gel and transblotted to nitrocellulose membrane. The membranes were washed with 5% (w/v) powdered milk dissolved in PBS with 0.1% Triton X-100, followed by incubation at 4° C. overnight with rabbit polyclonal against phospho-ERK or phosphor-AKT (1:1000, Cell Signaling Technology). Next, the membranes were washed and incubated with horseradish peroxidase (HRP)-conjugated secondary antibodies. The signal was visualized using ECL Western Blotting Kit. Blots were stripped and probed for total ERK or AKT expression. […]
Western blot analysis was performed on the total cell lysates. Antibodies against phospho-ERK1/2 and phospho-AKT were used and detected with HRP conjugated secondary antibodies. […]
(In general: Immunoblotting shows a protein as a band on a membrane.)

opioid kappa receptor, sequence (P34975 whole entry): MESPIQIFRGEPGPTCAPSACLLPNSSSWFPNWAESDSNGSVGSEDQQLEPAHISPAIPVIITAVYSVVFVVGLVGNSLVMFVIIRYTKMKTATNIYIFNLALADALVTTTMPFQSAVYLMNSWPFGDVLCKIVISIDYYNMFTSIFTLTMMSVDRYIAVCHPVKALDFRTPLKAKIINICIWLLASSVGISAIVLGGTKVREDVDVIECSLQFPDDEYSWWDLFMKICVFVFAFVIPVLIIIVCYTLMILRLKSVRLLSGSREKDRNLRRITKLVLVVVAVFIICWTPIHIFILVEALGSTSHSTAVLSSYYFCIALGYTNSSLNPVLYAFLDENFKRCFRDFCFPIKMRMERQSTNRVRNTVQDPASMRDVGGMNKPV
T2 sequence (P29274 whole entry): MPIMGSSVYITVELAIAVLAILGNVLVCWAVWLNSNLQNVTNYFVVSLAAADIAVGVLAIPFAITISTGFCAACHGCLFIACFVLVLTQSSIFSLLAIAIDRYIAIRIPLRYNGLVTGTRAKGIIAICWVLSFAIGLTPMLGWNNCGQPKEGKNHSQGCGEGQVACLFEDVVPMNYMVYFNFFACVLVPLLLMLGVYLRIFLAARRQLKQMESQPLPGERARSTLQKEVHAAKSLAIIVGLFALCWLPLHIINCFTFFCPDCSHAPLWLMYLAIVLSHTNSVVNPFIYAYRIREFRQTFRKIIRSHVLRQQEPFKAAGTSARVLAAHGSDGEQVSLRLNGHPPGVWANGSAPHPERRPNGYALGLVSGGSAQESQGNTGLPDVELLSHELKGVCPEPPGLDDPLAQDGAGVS
T1 sequence (P35372 whole entry): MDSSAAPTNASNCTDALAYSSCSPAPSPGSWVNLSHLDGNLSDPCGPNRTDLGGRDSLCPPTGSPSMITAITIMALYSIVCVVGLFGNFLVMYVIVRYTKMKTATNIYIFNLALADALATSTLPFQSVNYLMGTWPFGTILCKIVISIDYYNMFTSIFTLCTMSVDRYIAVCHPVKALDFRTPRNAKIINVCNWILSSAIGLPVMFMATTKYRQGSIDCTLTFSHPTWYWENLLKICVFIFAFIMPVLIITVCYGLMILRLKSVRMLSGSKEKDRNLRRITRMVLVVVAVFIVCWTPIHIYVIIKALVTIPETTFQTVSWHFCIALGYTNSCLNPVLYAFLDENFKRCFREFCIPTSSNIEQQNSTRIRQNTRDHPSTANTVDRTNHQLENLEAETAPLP
T3 sequence (P41143 whole entry): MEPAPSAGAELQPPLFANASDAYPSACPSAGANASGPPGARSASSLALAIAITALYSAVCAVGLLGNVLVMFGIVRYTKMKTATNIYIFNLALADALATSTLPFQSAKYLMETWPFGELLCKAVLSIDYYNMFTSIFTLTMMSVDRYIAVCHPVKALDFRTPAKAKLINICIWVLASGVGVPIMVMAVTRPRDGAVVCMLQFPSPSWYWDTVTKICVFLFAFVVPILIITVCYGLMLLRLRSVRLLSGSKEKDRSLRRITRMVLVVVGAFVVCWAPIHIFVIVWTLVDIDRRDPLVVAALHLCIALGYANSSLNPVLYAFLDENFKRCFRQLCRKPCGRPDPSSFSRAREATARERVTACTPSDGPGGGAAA

Broadly, the inhibition is how much of the control response was suppressed. With `CC[C@H]1N[C@@H](CC(C)C)C(CC)(CC)O1` [LC-02], the inhibition at 10 µM is 14% on Opioid (mu); 6% at Adenosine A2A; 18% on Opioid (delta); 30% on adenosine A3 receptor; 5% on Adenosine A1; 30% at opioid kappa receptor ([3H]U 69593, rat kappa receptor overexpressing cells). Also, the “% of inhibition of ligand binding” value at opioid kappa receptor (10 μM, [3H]U 69593, rat kappa receptor overexpressing cells) stood at 26%. Moreover, in test [1], the “protection against NMDA excitotoxicity and apoptosis (immunostaining)” value was “protected the cells from excitotoxicity and the resulting apoptosis at a level similar to control cells”. In the test with AKT, the “phosphorylation of AKT” value is “phosphorylated within 5-15 min”.
